The test system of one experiment is Ebolavirus. Particulars: cited from earlier work.
The subject of experiment [1] is recombinant Ebolavirus that encodes green fluorescent protein. Kind of experiment: microbe, parasite or virus in culture. The experiment is classed as cell-based. The following applies: read-out: IC50 (concentration that results in 50% inhibition of infection).
The next experiment concerns filoviruses. Particulars: cited from earlier work.

Like-named read-outs stand apart in the source and are kept apart here.

On to `C[C@H]1CCC/C=C/[C@@H]2C[C@H](O)C[C@H]2[C@H](O)/C=C/C(=O)O1` [Brefeldin A], for which the “effect on Ebolavirus infectivity” value in the experiment on Ebolavirus was “loss of infectivity”.
As for `CCc1ccc(C2Nc3ccccc3C(=O)N2c2ccccc2)s1` (centres unmarked) [Compound 7, 2-(5-Ethylthiophen-2-yl)-3-phenyl-2,3-dihydroquinazolin-4(1H)-one], the IC50 in experiment [1] (Orthoebolavirus, HeLa) is 11 µM.
Consider `O=C1c2ccccc2NC(c2ccc(-c3ccccc3)s2)N1c1ccccc1` (centres unmarked) [Compound 13, 3-Phenyl-2-(5-phenylthiophen-2-yl)-2,3-dihydroquinazolin-4(1H)-one], for which, in experiment [1] (Orthoebolavirus, HeLa), the IC50 turned out to be 4.2 µM.
With `CSc1ccc(C2Nc3ccccc3C(=O)N2c2ccccc2)s1` (centres unmarked) [Compound 17, 2-(5-(Methylthio)thiophen-2-yl)-3-phenyl-2,3-dihydroquinazolin-4(1H)-one], the IC50 in experiment [1] (Orthoebolavirus, HeLa) came out at 7.4 µM.
Take `O=C1c2ccccc2NC(c2ccc(-c3cccs3)s2)N1c1ccccc1` (centres unmarked) [Compound 18, 2-([2,2′-Bithiophen]-5-yl)-3-phenyl-2,3-dihydroquinazolin-4(1H)-one]: in experiment [1] (Orthoebolavirus, HeLa), the IC50 stood at 4.7 µM.
Turning to `O=C1c2ccccc2NC(c2ccc(-c3ccccn3)s2)N1c1ccccc1` (centres unmarked) [Compound 19, 3-Phenyl-2-(5-(pyridin-2-yl)thiophen-2-yl)-2,3-dihydroquinazolin-4(1H)-one], in experiment [1] (Orthoebolavirus, HeLa), the IC50 came to 5.6 µM.
On to `O=C1c2ccccc2NC(c2ccc(-c3ccco3)s2)N1c1ccccc1` (centres unmarked) [Compound 20, 2-(5-(Furan-2-yl)thiophen-2-yl)-3-phenyl-2,3-dihydroquinazolin-4(1H)-one], for which the IC50 in experiment [1] (Orthoebolavirus, HeLa) came out at 5.4 µM.
As for `Cc1nc(-c2ccc(C3Nc4ccccc4C(=O)N3c3ccccc3)s2)cs1` (centres unmarked) [Compound 21, 2-(5-(2-Methylthiazol-4-yl)thiophen-2-yl)-3-phenyl-2,3-dihydroquinazolin-4(1H)-one], in experiment [1] (Orthoebolavirus, HeLa), the IC50 was determined as 2.3 µM.
For the molecule `CC(Cc1ccc(O)c(O)c1)C(C)Cc1ccc(O)c(O)c1` (centres unmarked) [NDGA], the “effect on Ebolavirus infectivity” value with Ebolavirus is given as “loss of infectivity”.
As for `Cc1ccc(C2Nc3ccccc3C(=O)N2c2ccccc2)s1` (centres unmarked) [Retro-2^cycl, reference compound], the IC50 in experiment [1] was 42.5 µM.
For the molecule `NC(=O)c1ncn([C@@H]2O[C@H](CO)[C@@H](O)[C@H]2O)n1` [ribavirin], the efficacy against filoviruses entry with filoviruses is “ineffective”.
